Data published in ChEMBL document CHEMBL1128854, “Stereoselective synthesis and evaluation of all stereoisomers of Z4349, a novel and selective -opioid analgesic” (Bioorg Med Chem Lett, 1995).

Key:
Mus musculus = assay: In vivo analgesic activity in hot plate test after subcutaneous administration in mice; assay type: functional; details: sc
Mu-type opioid receptor = Mu-type opioid receptor (Rattus norvegicus, UniProt P33535); assay: Inhibition of [3H]dihydromorphine (1 nM) binding to mu opioid receptor of rat brain homogenate
Mu-type opioid receptor, sequence (P33535 whole entry): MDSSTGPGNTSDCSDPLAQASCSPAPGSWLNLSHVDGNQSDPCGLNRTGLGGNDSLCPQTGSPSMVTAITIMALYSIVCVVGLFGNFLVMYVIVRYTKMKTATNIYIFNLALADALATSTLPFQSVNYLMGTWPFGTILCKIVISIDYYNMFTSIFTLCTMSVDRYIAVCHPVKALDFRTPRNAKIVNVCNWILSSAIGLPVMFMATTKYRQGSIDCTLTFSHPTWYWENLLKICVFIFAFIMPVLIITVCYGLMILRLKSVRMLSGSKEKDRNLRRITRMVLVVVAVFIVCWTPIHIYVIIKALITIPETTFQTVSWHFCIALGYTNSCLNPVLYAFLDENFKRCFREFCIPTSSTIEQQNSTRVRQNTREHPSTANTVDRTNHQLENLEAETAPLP

[1] = target: T1, Delta-type opioid receptor (Rattus norvegicus, UniProt P33533); assay: Inhibition of [3H]-[D-Pen2, D-Pen5]-enkephalin (2 nM) to Opioid receptor delta 1 of male Sprague-Dawley rat brain homogenate
T1 sequence (P33533 whole entry): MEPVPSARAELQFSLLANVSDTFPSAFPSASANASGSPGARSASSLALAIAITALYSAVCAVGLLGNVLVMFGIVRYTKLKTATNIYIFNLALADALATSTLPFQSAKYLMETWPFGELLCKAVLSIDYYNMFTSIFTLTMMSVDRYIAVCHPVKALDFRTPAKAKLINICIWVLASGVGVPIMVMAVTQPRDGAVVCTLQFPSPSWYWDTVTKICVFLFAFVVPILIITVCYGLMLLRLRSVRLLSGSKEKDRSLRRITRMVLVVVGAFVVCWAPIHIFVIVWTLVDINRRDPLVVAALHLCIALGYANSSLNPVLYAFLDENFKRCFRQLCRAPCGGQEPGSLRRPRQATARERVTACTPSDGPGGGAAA

[2] = target: T2, Kappa-type opioid receptor (Rattus norvegicus, UniProt P34975); assay: Inhibition of 9 (2 nM) binding to Opioid receptor kappa 1 of rat brain homogenate; assay type: tissue-based
T2 sequence (P34975 whole entry): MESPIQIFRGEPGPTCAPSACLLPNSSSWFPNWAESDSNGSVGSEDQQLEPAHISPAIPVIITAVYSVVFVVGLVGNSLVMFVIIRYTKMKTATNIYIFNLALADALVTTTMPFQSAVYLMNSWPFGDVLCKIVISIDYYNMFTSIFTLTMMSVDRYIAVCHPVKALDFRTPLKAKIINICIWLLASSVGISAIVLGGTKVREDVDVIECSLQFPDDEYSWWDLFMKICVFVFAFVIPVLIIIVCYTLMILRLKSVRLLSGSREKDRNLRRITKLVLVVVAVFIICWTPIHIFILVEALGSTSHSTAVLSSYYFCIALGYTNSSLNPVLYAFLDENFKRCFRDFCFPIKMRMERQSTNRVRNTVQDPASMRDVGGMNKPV

[3] = target: T1, Delta-type opioid receptor; assay: Inhibition of [3H]-[D-Pen2, D-Pen5]-enkephalin (2 nM) to Opioid receptor delta 1 of male Sprague-Dawley rat brain homogenate; Not detectable
[4] = target: T2, Kappa-type opioid receptor; assay: […] to Opioid receptor kappa 1 of rat brain homogenate; Not detectable; assay type: tissue-based

| Structure (SMILES) | ED50 (Mus musculus) [mg/kg] | Ki (Mu-type opioid receptor) [nM] | Ki [1] [nM] | Ki [2] [nM] | Ki [3] | Ki [4] |
| --- | --- | --- | --- | --- | --- | --- |
| CC[C@@H](C)N(C[C@@H](O)[C@@H]1CCC(=O)N1Cc1ccccc1Cl)[C@@H](C)CC | > 100 | 340 | > 5000 | 3650 |  |  |
| CC[C@H](C)N(C[C@@H](O)[C@H]1CCC(=O)N1Cc1ccccc1Cl)[C@@H](C)CC | > 100 | > 5000 |  |  | Not Active | Not Active |
| CC[C@H](C)N(C[C@H](O)[C@@H]1CCC(=O)N1Cc1ccccc1Cl)[C@@H](C)CC | > 100 | 2250 | > 5000 | > 5000 |  |  |
| CC[C@@H](C)N(C[C@H](O)[C@@H]1CCC(=O)N1Cc1ccccc1Cl)[C@@H](C)CC | 1.5 | 32 | > 5000 |  |  | Not Active |
| CC[C@@H](C)N(C[C@H](O)[C@H]1CCC(=O)N1Cc1ccccc1Cl)[C@@H](C)CC | > 100 | > 5000 |  | 198 | Not Active |  |
| CC[C@@H](C)N(C[C@@H](O)[C@H]1CCC(=O)N1Cc1ccccc1Cl)[C@H](C)CC | 0.47 | 35 | > 5000 | 4850 |  |  |
| CC[C@@H](C)N(C[C@H](O)[C@@H]1CCC(=O)N1Cc1ccccc1Cl)[C@H](C)CC | 0.01 | 0.25 | 265 | 62.5 |  |  |
| CN1CC[C@]23c4c5ccc(O)c4O[C@H]2[C@@H](O)C=C[C@H]3[C@H]1C5 [MORPHINE] | 4.6 |  |  |  |  |  |
| CC[C@H](C)N(C[C@@H](O)[C@@H]1CCC(=O)N1Cc1ccccc1Cl)[C@@H](C)CC | > 100 | 145 | > 5000 | > 5000 |  |  |
| CC[C@@H](C)N(C[C@H](O)[C@H]1CCC(=O)N1Cc1ccccc1Cl)[C@H](C)CC | 10.4 | 100 | 1850 | > 5000 |  |  |
| CC[C@H](C)N(C[C@H](O)[C@H]1CCC(=O)N1Cc1ccccc1Cl)[C@@H](C)CC | > 100 | > 5000 | > 5000 | 270 |  |  |
| CC[C@@H](C)N(C[C@@H](O)[C@H]1CCC(=O)N1Cc1ccccc1Cl)[C@@H](C)CC | 14.3 | 87 | 1780 | 260 |  |  |
| CC[C@@H](C)N(C[C@@H](O)[C@@H]1CCC(=O)N1Cc1ccccc1Cl)[C@H](C)CC | > 100 | 390 | 550 | > 5000 |  |  |
